Source: US8288390B2, “Benzofuran derivatives” (Takeda Pharmaceutical Company Limited, priority 2009, dated 2012)

test system: rat mixed glial culture; experiment: Activity of promoting neuronal neogenesis in rat mixed glial culture; type: cell-based; conditions: Rattus norvegicus, 72 h, compound 1 μM + rhIGF-1 100 ng/ml, 3 days culture; absorbance at 450 nm (class III beta-tubulin antibody); control rhIGF-1 only = 100%; read-out: Increase Ratio of the Absorbance (% control)
Description: From a three-day old SD rat, hippocampus and cerebral cortex were removed. By using a kit of dispersion liquid for neuronal cells (MB-X9901, manufactured by SUMITOMO BAKELITE CO., LTD.), cell suspension was prepared and then seeded on a 96-well plate coated with collagen Type I (4860-010, manufactured by Asahi Techno Glass Co., Ltd.) to 10^5 cells/well. Under the condition of 37° C. and 5% CO2, the cells were cultured for four days in a growth medium (D-MEM/F12 with 10% FBS, comprising PS).
After culturing, the medium was exchanged with a medium for differentiation (D-MEM/F12, comprising PS), added with rhIGF-1 (R&D Systems, 291-G1-250, final concentration of 100 ng/ml) and the compound to 1 μM, followed by further culture for three days. Cultured cells were fixed with 4% paraformaldehyde-PBS (manufactured by MUTO PURE CHEMICALS CO., LTD.) and subjected to membrane penetration using 0.1% Triton X-100 PBS, followed by blocking with Block Ace solution (UK-B80, manufactured by Dainippon Sumitomo Pharma Co., Ltd.). As a primary antibody, Anti-neuron-specific class III beta-tubulin antibody (R&D Systems, MAB1195, clone Tuj-1) was used after 1000× dilution. As a secondary antibody, Anti-Mouse Ig, HRP-Linked F (ab′) 2 Fragment Sheep (Amersham Biosciences, NA9310) was used after 10000× dilution. For washing process, the plate washer (BIO-TEK INSTRUMENTS ELX405) was used. For a chromogenic reaction, the reaction was carried out for 10 minutes using TMB Microwell Peroxidase Substrate System (Kirkegaard & Perry Laboratories, 50-76-00), followed by terminating the reaction according to the addition of 1M phosphoric acid. By using the plate reader (Labsystems Multiskan BICHROMATIC), absorbance at 450 nm was measured.
The absorbance for the case in which no compound is added (i.e., control, rhIGF-1 only) was 100%, and the increase ratio of the absorbance for the compound addition (i.e., compound+rhIGF-1) compared to the control was obtained as % control. Activity of the each compound for promoting neuronal differentiation that is measured according to the above method is summarized in Table 9 and Table 10.

First: COc1ccc(N2CCN(c3cc4c(cc3-c3ccc(C)cc3)OC(C)(C)C4)CC2)cc1 [Example 2, 1-[2,2-Dimethyl-6-(4-methylphenyl)-2,3-dihydro-1-benzofuran-5-yl]-4-(4-methoxyphenyl)piperazine]
Second: COc1ccc(N2CCN(c3c(C)c(C)c4c(c3-c3ccc(N(C)C)cc3)CC(C)(C)O4)CC2)cc1 [Example 5, 4-{5-[4-(4-Methoxyphenyl)piperazin-1-yl]-2,2,6,7-tetramethyl-2,3-dihydro-1-benzofuran-4-yl}-N,N-dimethylaniline]
The activity at 1 µM of the first is lower: 432% for the first, 488% for the second.

First: COc1ccc(N2CCN(c3c(C)c(C)c4c(c3-c3ccoc3)CC(C)(C)O4)CC2)cc1 [Example 6, 1-(4-Furan-3-yl-2,2,6,7-tetramethyl-2,3-dihydro-1-benzofuran-5-yl)-4-(4-methoxyphenyl)piperazine]
Second: C=Cc1c2c(c(C)c(C)c1N1CCN(c3ccc(OC)cc3)CC1)OC(C)(C)C2 [Example 8, 1-(4-Ethenyl-2,2,6,7-tetramethyl-2,3-dihydro-1-benzofuran-5-yl)-4-(4-methoxyphenyl)piperazine]
The activity at 1 µM of the first is higher: greater than 500% for the first, 242% for the second.

First: COc1ccc(N2CCN(c3c(C)c(C)c4c(c3C3CC3)CC(C)(C)O4)CC2)cc1 [Example 7, 1-(4-Cyclopropyl-2,2,6,7-tetramethyl-2,3-dihydro-1-benzofuran-5-yl)-4-(4-methoxyphenyl)piperazine]
Second: CCc1c2c(c(C)c(C)c1N1CCN(c3ccc(OC)cc3)CC1)OC(C)(C)C2 [Example 9, 1-(4-Ethyl-2,2,6,7-tetramethyl-2,3-dihydro-1-benzofuran-5-yl)-4-(4-methoxyphenyl)piperazine]
The activity at 1 µM of the first is higher: 325% for the first, 228% for the second.

First: COc1ccc(N2CCN(c3c(C)c(C)c4c(c3C(C)C)CC(C)(C)O4)CC2)cc1 [Example 11, 1-(4-Methoxyphenyl)-4-[2,2,6,7-tetramethyl-4-(1-methylethyl)-2,3-dihydro-1-benzofuran-5-yl]piperazine]
Second: COc1ccc(N2CCCN(c3c(C)c(C)c4c(c3C)CC(C)(C)O4)CC2)cc1 [Example 45, 1-(4-Methoxyphenyl)-4-(2,2,4,6,7-pentamethyl-2,3-dihydro-1-benzofuran-5-yl)-1,4-diazepane]
The activity at 1 µM of the first is lower: 159% for the first, 205% for the second.

First: Cc1ccc(N2CCN(c3c(C)c(C)c4c(c3C)CC(C)(C)O4)CC2)cc1 [Example 12, 1-(4-Methylphenyl)-4-(2,2,4,6,7-pentamethyl-2,3-dihydro-1-benzofuran-5-yl)piperazine]
Second: Cc1c(C)c(N2CCN(c3ccc(F)cc3)CC2)c(C)c2c1OC(C)(C)C2 [Example 41, 1-(4-Fluorophenyl)-4-(2,2,4,6,7-pentamethyl-2,3-dihydro-1-benzofuran-5-yl)piperazine]
The activity at 1 µM of the first is lower: 336% for the first, greater than 500% for the second.

Compared with COc1ccc(C2CN(c3c(C)c(C)c4c(c3C)CC(C)(C)O4)CCN2C)cc1 (stereo not shown) [Example 13, 2-(4-Methoxyphenyl)-1-methyl-4-(2,2,4,6,7-pentamethyl-2,3-dihydro-1-benzofuran-5-yl)piperazine], COc1ccc(C2CN(c3c(C)c(C)c4c(c3C)CC(C)(C)O4)CCO2)cc1 (stereo not shown) [Example 15, 2-(4-Methoxyphenyl)-4-(2,2,4,6,7-pentamethyl-2,3-dihydro-1-benzofuran-5-yl)morpholine] is higher in activity at 1 µM: 265% for the first, 332% for the second.

First: Cc1c(C)c(N2CCOC(Cc3ccccc3)C2)c(C)c2c1OC(C)(C)C2 (stereo not shown) [Example 16, 2-Benzyl-4-(2,2,4,6,7-pentamethyl-2,3-dihydro-1-benzofuran-5-yl)morpholine]
Second: Cc1c(C)c(N2CCN(c3nc(-c4ccccc4)ns3)CC2)c(C)c2c1OC(C)(C)C2 [Example 87, 1-(2,2,4,6,7-Pentamethyl-2,3-dihydro-1-benzofuran-5-yl)-4-(3-phenyl-1,2,4-thiadiazol-5-yl)piperazine]
The activity at 1 µM of the first is higher: 344% for the first, 256% for the second.

Going from COc1ccc(N2CCN(c3c(C)c(C)c4c(c3C)CC3(CCCC3)O4)CC2)cc1 [Example 19, 1-(4-Methoxyphenyl)-4-(4,6,7-trimethyl-3H-spiro[1-benzofuran-2,1′-cyclopentan]-5-yl)piperazine] to CCOc1c(C)c(N2CCN(c3ccc(OC)cc3)CC2)c(C)c2c1OC(C)(C)C2 [Example 46, 1-(7-Ethoxy-2,2,4,6-tetramethyl-2,3-dihydro-1-benzofuran-5-yl)-4-(4-methoxyphenyl)piperazine], the activity at 1 µM falls from 278% to 221%.

Going from COc1ccc(N2CCN(c3c(C)c(C)c4c(c3C)CC(C)(C)O4)CC2)cc1F [Example 32, 1-(3-Fluoro-4-methoxyphenyl)-4-(2,2,4,6,7-pentamethyl-2,3-dihydro-1-benzofuran-5-yl)piperazine] to COc1cc(N2CCN(c3c(C)c(C)c4c(c3C)CC(C)(C)O4)CC2)ccc1F [Example 38, 1-(4-Fluoro-3-methoxyphenyl)-4-(2,2,4,6,7-pentamethyl-2,3-dihydro-1-benzofuran-5-yl)piperazine], the activity at 1 µM falls from greater than 500% to 294%.

Going from Cc1cc(N2CCN(c3c(C)c(C)c4c(c3C)CC(C)(C)O4)CC2)ccc1F [Example 35, 1-(4-Fluoro-3-methylphenyl)-4-(2,2,4,6,7-pentamethyl-2,3-dihydro-1-benzofuran-5-yl)piperazine] to COc1ccc(N2CCN(c3c(C)c(C)c4c(c3C)CC(C)(C)O4)CC2)cc1OC [Example 37, 1-(3,4-Dimethoxyphenyl)-4-(2,2,4,6,7-pentamethyl-2,3-dihydro-1-benzofuran-5-yl)piperazine], the activity at 1 µM rises from 182% to greater than 500%.

Compared with COc1ccc(N2CCN(c3c(C)c(C)c4c(c3C)CC(C)(C)O4)CC2)cn1 [Example 40, 1-(6-Methoxypyridin-3-yl)-4-(2,2,4,6,7-pentamethyl-2,3-dihydro-1-benzofuran-5-yl)piperazine], COc1c(C)c(N2CCN(c3ccc(C)cc3)CC2)c(C)c2c1OC(C)(C)C2 [Example 62, 1-(7-Methoxy-2,2,4,6-tetramethyl-2,3-dihydro-1-benzofuran-5-yl)-4-(4-methylphenyl)piperazine] is higher in activity at 1 µM: 341% for the first, greater than 500% for the second.

COc1ccc(N2CCN(c3c(C)c4c(c(OC)c3C)OC(C)C4)CC2)cc1 (stereo not shown) [Example 48, 1-(4-Methoxyphenyl)-4-(7-methoxy-2,4,6-trimethyl-2,3-dihydro-1-benzofuran-5-yl)piperazine] and CCOc1ccc(N2CCN(c3c(C)c4c(c(OC)c3C)OC(C)C4)CC2)cc1 (stereo not shown) [Example 56, 1-(4-Ethoxyphenyl)-4-(7-methoxy-2,4,6-trimethyl-2,3-dihydro-1-benzofuran-5-yl)piperazine] cannot be ordered by activity at 1 µM: greater than 500% for the first, greater than 500% for the second.

COc1ccc(N2CCN(c3c(C)c4c(c(OC(C)C)c3C)OC(C)C4)CC2)cc1 (stereo not shown) [Example 55, 1-(4-Methoxyphenyl)-4-[2,4,6-trimethyl-7-(1-methylethoxy)-2,3-dihydro-1-benzofuran-5-yl]piperazine] and CCOc1ccc(N2CCN(c3c(C)c4c(c(OCC)c3C)OC(C)C4)CC2)cc1 (stereo not shown) [Example 61, 1-(4-Ethoxyphenyl)-4-(7-ethoxy-2,4,6-trimethyl-2,3-dihydro-1-benzofuran-5-yl)piperazine] cannot be ordered by activity at 1 µM: greater than 500% for the first, greater than 500% for the second.

Going from COc1ccc(N2CCN(c3c(C)c4c(c(OC)c3C)OC(C)C4)CC2)cc1F (stereo not shown) [Example 59, 1-(3-Fluoro-4-methoxyphenyl)-4-(7-methoxy-2,4,6-trimethyl-2,3-dihydro-1-benzofuran-5-yl)piperazine] to Cc1c(C)c(N2CCN(c3ccc(C#N)cc3)CC2)c(C)c2c1OC(C)(C)C2 [Example 90, 4-[4-(2,2,4,6,7-Pentamethyl-2,3-dihydro-1-benzofuran-5-yl)piperazin-1-yl]benzonitrile], the activity at 1 µM rises from 478% to greater than 500%.

In the case of Cc1c(C)c(N2CCN(c3ccc(S(C)(=O)=O)cc3)CC2)c(C)c2c1OC(C)(C)C2 [Example 92, 1-[4-(Methylsulfonyl)phenyl]-4-(2,2,4,6,7-pentamethyl-2,3-dihydro-1-benzofuran-5-yl)piperazine], the activity at 1 µM is reported as 457%.

same assay, conditions: compound 1 μM + rhIGF-1 100 ng/ml, 3 days culture; absorbance at 450 nm (class III beta-tubulin antibody); control rhIGF-1 only = 100%

COc1ccc(N2CCN(c3c(C)c(C)c4c(c3C)CC(C)(CO)O4)CC2)cc1 (single isomer, unassigned; (+)) [Example 144, (+)-{5-[4-(4-methoxyphenyl)piperazin-1-yl]-2,4,6,7-tetramethyl-2,3-dihydro-1-benzofuran-2-yl}methanol] was tested, and the “Increase Ratio of the Absorbance (% control)” value was greater than 500 % control.
For COc1ccc(N2CCN(c3c(C)c(C)c4c(c3C)CC(C)(CO)O4)CC2)cc1 (single isomer, unassigned; (-)) [Example 143, (−)-{5-[4-(4-methoxyphenyl)piperazin-1-yl]-2,4,6,7-tetramethyl-2,3-dihydro-1-benzofuran-2-yl}methanol], the “Increase Ratio of the Absorbance (% control)” value was greater than 500 % control.
